Patent US10344019B2 (priority 2010, dated 2019)
Where two headings read alike, the source gives them in different places.

Legend:
Assay in all cases: microbe, parasite or virus in culture
Assay type in all cases: cell-based
[1] = system: HCV 3a RLuc cells (NS5A chimeric genotype 1b Con1 replicon with consensus genotype 3a NS5A gene); settings: Hepatitis C virus
Summary of the method: (§1)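 Replicon cells stably carrying the listed RLuc-encoding dicistronic replicons were seeded and treated with DMSO serial dilutions of compound (10 mM stocks) diluted into culture medium. After 72 h, cells were lysed and Renilla luciferase activity measured. EC50 was derived by non-linear regression.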

[2] = system: HCV 2a JFH-1 Rluc cells (dicistronic genotype 2a JFH-1 replicon, RLuc reporter); settings: Hepatitis C virus, genotype 2a JFH-1 replicon, read-out: 2a JFH
Summary of the method: (§2)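 Replicons used: genotype 1b Con1, 1a H77, 2a JFH-1, and a 2a JFH-1 chimera with J6-strain NS5A (M31 present), all dicistronic.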

[3] = system: HCV 1a RLuc cells (dicistronic genotype 1a H77 replicon, RLuc reporter); settings: Hepatitis C virus, read-out: 1a
Summary of the method: as §2

[4] = system: HCV 1b RLuc cells (dicistronic genotype 1b Con1 replicon, RLuc reporter); settings: Hepatitis C virus, read-out: 1b (nM)
Summary of the method: as §2

[5] = system: HCV 4a Rluc cells (NS5A chimeric genotype 1b Con1 replicon with genotype 4a NS5A gene); settings: Hepatitis C virus, read-out: 4a
Summary of the method: as §1

[6] = read-out: 3a, Table 2, genotype 3a NS5A chimeric replicon
[7] = 72 h, Table 2, genotype 1a H77 replicon, 72 hours
[8] = read-out: 3a, genotype 3a NS5A chimeric 1b Con1 replicon
[9] = genotype 1a H77 replicon, RLuc reporter

With `COC(=O)NC(C(=O)N1[C@@H]2CC[C@@H](C2)[C@H]1c1nc2ccc(-c3ccc4c(c3)C(F)(F)c3cc(-c5c[nH]c([C@H]6CCCN6C(=O)[C@H](NC(=O)OC)c6ccccc6)n5)ccc3-4)cc2[nH]1)[C@@H](C)OC` (stereo partly drawn) [Example 75] the EC50 [1, 6] was 0.001 to 0.99 nM, the EC50 ([2]; 72 h, Table 2, 72 hours) was 0.001 to 0.999 nM and the EC50 [3, 7] was 0.001 to 0.999 nM. The EC50 ([4]; 72 h) was 0.005 nM and the EC50 [5] was 0.001 to 0.99 nM.

`COC(=O)N[C@H](C(=O)N1CCC[C@H]1c1ncc(-c2ccc3c(c2)C(=C(C)C)c2cc(-c4cnc([C@@H]5CCCN5C(=O)[C@@H](NC(=O)OC)C(C)C)[nH]4)ccc2-3)[nH]1)C(C)C` [Example 249] was tested, and the EC50 [1, 8] was > 5 nM, the EC50 ([2]; RLuc reporter) was 1 to 44 nM and the EC50 [3, 9] was 1 to 44 nM. The EC50 [4] was 0.014 nM and the EC50 [5] was 0.001 to 0.99 nM.

`COC(=O)N[C@H](C(=O)N[C@H](c1nc(-c2ccc3c(c2)C(F)(F)c2cc(-c4ccc5nc([C@@H]6CCCN6C(=O)[C@H](NC(=O)OC)c6ccccc6)[nH]c5c4)ccc2-3)c[nH]1)C(C)C)C1CCOCC1` [Example 227] showed an EC50 [1, 8] of 0.001 to 0.99 nM, an EC50 ([2]; RLuc reporter) of 0.001 to 0.999 nM and an EC50 [3, 9] of 1 to 44 nM. For the same compound, the EC50 [4] was 0.025 nM and the EC50 [5] was 0.001 to 0.99 nM.

Work on `COC(=O)N[C@H](C(=O)N1CCC[C@H]1c1nc2ccc3cc(-c4ccc(-c5cnc([C@@H]6[C@H]7CC[C@H](C7)N6C(=O)[C@@H](NC(=O)OC)C6CCOCC6)[nH]5)cc4)ccc3c2[nH]1)C(C)C` [Example 62] yielded an EC50 [1, 6] of 0.001 to 0.99 nM, an EC50 ([2]; 72 h, Table 2, 72 hours) of 0.001 to 0.999 nM and an EC50 [3, 7] of 0.001 to 0.999 nM. The EC50 ([4]; 72 h) was 0.034 nM and the EC50 [5] was 0.001 to 0.99 nM.

In the case of `COC(=O)N[C@H](C(=O)N1CCC[C@H]1c1nc2ccc3cc(-c4csc5cc(-c6cnc([C@@H]7CCCN7C(=O)[C@H](NC(=O)OC)c7ccccc7)[nH]6)ccc45)ccc3c2[nH]1)C(C)C` [Example 285], the EC50 [1, 8] is reported as 0.001 to 0.99 nM, the EC50 ([2]; RLuc reporter) is reported as 0.001 to 0.999 nM and the EC50 [3, 9] is reported as 0.001 to 0.999 nM. For the same compound, the EC50 [4] was 0.006 nM and the EC50 [5] was 0.001 to 0.99 nM.

`COC(=O)N[C@H](C(=O)N1CCC[C@H]1c1ncc(-c2cc3c4c(c2)OCc2cc(-c5cnc([C@@H]6CCCN6C(=O)[C@@H](NC(=O)OC)[C@@H](C)OC)[nH]5)cc(c2-4)OC3)[nH]1)C(C)C` [Example 313] showed an EC50 ([1]; read-out: 3a, genotype 3a replicon) of 0.001 to 0.99 nM, an EC50 [2] of 0.001 to 0.999 nM and an EC50 ([3]; genotype 1a replicon) of 0.001 to 0.999 nM. The EC50 [4] was 0.079 nM and the EC50 [5] was 0.001 to 0.99 nM.

`COC(=O)NC(C(=O)N1C[C@H](C)C[C@H]1c1ncc(-c2ccc(-c3ccc4cc(-c5cnc([C@@H]6CCCN6C(=O)[C@@H](NC(=O)OC)C(C)C)[nH]5)ccc4c3)cc2)[nH]1)c1cccnc1` (stereo partly drawn) [Example 215] was tested, and the EC50 [1, 8] was 0.001 to 0.99 nM, the EC50 ([2]; RLuc reporter) was 0.001 to 0.999 nM and the EC50 [3, 9] was 0.001 to 0.999 nM. It also gave an EC50 [4] of 0.023 nM and an EC50 [5] of 0.001 to 0.99 nM.

`COC(=O)N[C@H](C(=O)N1[C@@H]2CC[C@@H](C2)[C@H]1c1ncc(-c2ccc(-c3ccc(-c4cnc([C@@H]5C[C@H]6C[C@H]6N5C(=O)[C@@H](NC(=O)OC)C(C)C)[nH]4)cc3)cc2)[nH]1)C(C)C` [Example 99] showed an EC50 [1, 6] of 1 to 4.99 nM, an EC50 ([2]; 72 h, Table 2, 72 hours) of 0.001 to 0.999 nM and an EC50 [3, 7] of 0.001 to 0.999 nM. The EC50 ([4]; 72 h) was 0.021 nM and the EC50 [5] was 0.001 to 0.99 nM.

`COC(=O)N[C@H](C(=O)N1CC2(CC2)C[C@H]1c1ncc(-c2ccc(-c3ccc4cc(-c5cnc([C@@H]6CCCN6C(=O)[C@H](NC(=O)OC)c6ccccc6)[nH]5)ccc4c3)cc2)[nH]1)C1CCOCC1` [Example 234] was tested, and the EC50 [1, 8] was 0.001 to 0.99 nM, the EC50 ([2]; RLuc reporter) was 0.001 to 0.999 nM and the EC50 [3, 9] was 0.001 to 0.999 nM. It also gave an EC50 [4] of 0.011 nM and an EC50 [5] of 0.001 to 0.99 nM.

`COC(=O)NC(C(=O)N1CCC[C@H]1c1ncc(-c2cc3c4c(c2)CCc2cc(-c5cnc([C@@H]6CCCN6C(=O)[C@@H](NC(=O)OC)[C@@H](C)OC)[nH]5)cc(c2-4)CC3)[nH]1)[C@@H](C)OC` (stereo partly drawn) [Example 21] showed an EC50 ([1]; read-out: 3a, Table 1, genotype 3a NS5A chimeric replicon) of 0.001 to 0.99 nM, an EC50 ([2]; 72 h, Table 1, 72 hours) of 0.001 to 0.999 nM and an EC50 ([3]; 72 h, Table 1, genotype 1a H77 replicon, 72 hours) of 0.001 to 0.999 nM. It also gave an EC50 ([4]; 72 h) of 0.06 nM and an EC50 [5] of 0.001 to 0.99 nM.

`COC(=O)N[C@H](C(=O)N1CCC[C@H]1c1ncc(-c2ccc(-c3ccc(-c4cnc([C@@H]5Cc6ccccc6N5C(=O)[C@@H](NC(=O)OC)C(C)C)[nH]4)cc3)cc2)[nH]1)C(C)C` [Example 266] was tested, and the EC50 [1, 8] was 1 to 4.99 nM, the EC50 ([2]; RLuc reporter) was 1 to 44 nM and the EC50 [3, 9] was 0.001 to 0.999 nM. The EC50 [4] was 0.009 nM and the EC50 [5] was 0.001 to 0.99 nM.

In the case of `COC(=O)N[C@H](C(=O)N1CCC[C@H]1c1ncc(-c2ccc(-c3cc4ccc(-c5c[nH]c([C@@H]6CCCN6C(=O)[C@H](NC(=O)OC)c6ccccc6)n5)cc4s3)cc2)[nH]1)C(C)C` [Example 252], the EC50 [1, 8] is reported as 0.001 to 0.99 nM, the EC50 ([2]; RLuc reporter) is reported as 0.001 to 0.999 nM and the EC50 [3, 9] is reported as 0.001 to 0.999 nM. It also gave an EC50 [4] of 0.004 nM and an EC50 [5] of 0.001 to 0.99 nM.
